# Values of other authors, collected in publication PMC12009570 (International Journal of Nanomedicine, 2025).
# Assays:
# [1] = not given; remark: listed apart in the source
structure (smiles),measurement,setting,value
"Cl.O=C1[C@@H]2[C@H]3CC[C@H](C3)[C@@H]2C(=O)N1C[C@@H]1CCCC[C@H]1CN1CCN(c2nsc3ccccc23)CC1 [LSD, Lurasidone hydrochloride]",pH at which most soluble,,3.8
same,oral bioavailability,"[1]; conventional tablets, oral",9–19%
same,"AUC, times higher than in the fasted state",[1]; food effect,2 times
same,"Cmax, times higher than in the fasted state",[1]; food effect,3 times
